Consider nine compounds from US20240182456A1, “2-((4-((S)-2-(4-CHLORO-2-FLUOROPHENYL)-2-METHYLBENZO[D][1,3]DIOXOL-4-YL)PIPERIDIN-1-YL)METHYL)-1-(((S)-OXETAN-2-YL)METHYL)-1H-IMIDAZOLE DERIVATIVES AS ACTIVATORS OF THE GLP1 RECEPTOR FOR THE TREATMENT OF OBESITY” (Novartis AG, priority 2021, published 2024).

Like-named read-outs stand apart in the source and are kept apart here.

One test addresses human GLP1R (Homo sapiens, UniProt P43220). The test is described as follows: Human GLP1R DERET internalization assay. Type of test: cell-based. The settings on record: HEK293-SNAP-hGLP1R-GloSensor cells; for EC50: mean n=2; for Emax: relative to GLP1(7-36). The protocol:
(§1) Compounds 1 to 31 were tested in the following cellular assays that measure the intracellular cAMP concentration, beta-arrestin recruitment and receptor internalization. The cAMP is generated by the activation of GLP1R. The cAMP data obtained is shown in Table 1 (where S.E.M. is included, mean n=3 independent experiments+/−S.E.M). Beta-arrestin is recruited upon activation of GLP1R and the data obtained are shown in Table 2 (mean n=2 independent experiments, +/−S.D). The extent to which the GLP1R is internalized into the cell and away from the plasma membrane following activation is also shown in Table 2 (mean n=2 independent experiments, +/−S.D). EC50 for each assay is defined as the concentration of the compound that leads to half of the maximum response (after baseline correction). Emax is defined as the maximum response observed for the test compound, normalized to the maximum response observed for the endogenous ligand (GLP1(7-36)) to GLP1R.
The extent to which agonists internalize the human GLP1R was determined based on an optimized version of a RealTime FRET-based ‘DERET’ (Dissociation Enhanced Resonance Energy Transfer) assay. The technology relies on labeling of the SNAP-tagged GPCR with a SNAP-Lumi-Terbium (donor fluorophore, Cisbio, cat #SSNPTBD). The compounds are incubated with the cells over-expressing the GPCR of interest in the presence of an excess of fluorescein (acceptor fluorophore). When the GPCR is on the cell surface, the donor signal is quenched by the acceptor and the donor/acceptor ratio is low. As the GPCR internalizes, the donor signal is no longer quenched, and the acceptor is no longer excited so the donor/acceptor ratio increases.
HEK293-SNAP-hGLP1R-GloSensor cells (stably overexpressing SNAP-tagged hGLP1R) were seeded overnight in white 384-well poly-D-Lysine coated plates (Greiner Bio One, cat #781945) in regular DMEM growth medium (Gibco, cat #11965-092, 10% heat-inactivated FBS, 10 mM HEPES, 1× penicillin/streptomycin, 0.5 mg/mL geneticin (Gibco, cat #10131-035) and 0.25 mg/mL hygromycin B (Invitrogen, cat #10687010). On the assay day, cell medium was removed and 100 nM SNAP-Lumi-Tb reagent was added in Opti-MEM solution. The cells were incubated at 37° C. for 1 h. Cells were washed using a plate washer in assay buffer [1×HBSS (10× Gibco, cat #14065-056), 20 mM Hepes (Gibco, cat #15630-080), 1 mM CaCl2 (Fluka, cat #21114-1L), 1 mM MgCl2 (Ambion, cat #AM9530G) pH7.4], and 20 μL buffer with 0.1% BSA was added to each well. After leaving cells to equilibrate for ˜15 min at 37° C., 10 μL of Fluorescein (sodium salt, Sigma, cat #F6377, diluted in buffer) was added at 25 μM final concentration. To generate triplicate dose response curves, compounds were serially diluted 3-fold in assay buffer, then added to the cell assay plate to a final volume of 40 μL and final top concentrations starting at 30 μM. In the same plate and assay buffer as the tested compounds, a GLP1 (7-36) peptide (Bachem, cat #H-6795) control curve was included at a final top concentration of 1 μM in order to establish EC100. EC0 wells with buffer only were also included. The plate FRET fluorescence was measured immediately using a Perkin Elmer Envision with LANCE/DELFIA D400 single mirror, excitation filter X320, and emission filters M615_203 (donor emission) and M515 (acceptor emission), and then measured every 30 min. […] Plates were kept at 37° C. between reads. Data was expressed as the ratio of donor/acceptor emissions using Microsoft Excel and plotted in GraphPad Prism. In order to determine EC50 and Emax for internalization, data was calculated and expressed as percent of the GLP1 (7-36) EC100 control wells: [(sample signal−mean EC0 signal)/(mean EC100 of GLP1 (7-36) signal−mean EC0 signal)]*100 using Microsoft Excel. Curve fitting for EC50 determinations was performed using GraphPad Prism. The 4-parameter logistic model, Hill slope was used:
Y=Bottom+(Top−Bottom)/(1+10^((Log EC50−X)*Hill Slope)), […]

In another test the target is human GLP1R (hGLP1R) (Homo sapiens, UniProt P43220). As to the kind of experiment: Human GLP1R cAMP agonist assay (GloSensor). Type of test: cell-based. The settings on record: for Emax: read-out: Emax mean; for EC50: intracellular cAMP, mean n=3 where SEM is given. Here is the method: as §1
Human GLP1R cAMP Agonist Assay
The agonist activity of compounds was determined using the GloSensor™ cAMP Assay (Promega Corp.), which measures changes in the intracellular concentration of cAMP after ligand activation of GPCRs. The assay uses a biosensor encoded by pGloSensor™-22F cAMP plasmid (Promega, cat #E2301) with cAMP binding domains fused to a mutant form of Photinus pyralis luciferase. Binding to cAMP causes conformational changes that promote large increases in light output, which can be measured by a luminescence detector. HEK293-SNAP-hGLP1R-GloSensor cells stably overexpressing the human GLP1 receptor (hGLP1R) and pGloSensor™-22F were seeded in white 384-well poly-D-Lysine coated plates (Greiner Bio One, cat #781945) in CO2-independent media (Gibco cat #18045-088 with 1.0% FBS, 2 mM L-glutamine, penicillin and streptomycin) and incubated overnight at 37° C., 5% CO2 with humidity. The assay was started the following morning by adding an equal volume of CO2-independent media containing 4% v/v dilution of the GloSensor substrate (Promega, cat #E1291) to all wells. The cell plate was incubated at rt for 2 h in the dark. The Biomek 7 (Beckman Coulter) instrument was used for the liquid handling steps. To generate duplicate dose response curves, 3-fold serially diluted compounds were added in to the cell assay plate to a final volume of 60 μL with final concentrations ranging from 30 μM through 0.06 μM in CO2-independent media containing 0.1% BSA, 0.5 mM IBMX and 0.4% DMSO. In the same plate and assay buffer as the tested compounds, were EC100 control wells containing GLP1 (7-36) peptide (Bachem, cat #H-6795) at a final concentration of 2 nM and also EC0 control wells containing no peptide. This plate was incubated at rt in the dark for 12 min after adding the compounds to the cells. Luminescence was then measured with an Envision 2104 Multilabel reader with “TRF Light Unit, 337 nm” (PerkinElmer) using the Ultra-Sensitive protocol setting “384-well US luminescence detector” with the 384-well luminescence aperture, 0.1 seconds per well. cAMP activity was calculated as percent of the GLP1 (7-36) EC100 control wells: [(sample signal−mean EC0 signal)/(mean EC100 of GLP1 (7-36) signal−mean EC0 signal)}*100. Curve fitting for EC50 determinations was performed in the Helios module of the software package DAVID. The 4-parameter logistic model, Hill slope was used: y=Ainf+(A0−Ainf)/(1+(x/AC50)^Hill Slope) where y is the functional response; x is the compound concentration; A0 is the minimum value (at 0 dose); Ainf is the maximum value (at infinite dose); AC50 corresponds to the point of inflection (i.e. the point on the sigmoid shaped curve halfway between A0 and Ainf). The EC50 value was represented by the AC50 value calculated from Helios in μM. Emax is the maximal activity detected within the concentration range, derived from the fitted curve. […]

[1] abbreviates: HEK293-SNAP-hGLP1R-GloSensor cells, cAMP, normalized to GLP1(7-36) maximum response.
[2] abbreviates: HEK293-SNAP-hGLP1R-GloSensor cells.

Sequence of human GLP1R (hGLP1R) (P43220 24-463): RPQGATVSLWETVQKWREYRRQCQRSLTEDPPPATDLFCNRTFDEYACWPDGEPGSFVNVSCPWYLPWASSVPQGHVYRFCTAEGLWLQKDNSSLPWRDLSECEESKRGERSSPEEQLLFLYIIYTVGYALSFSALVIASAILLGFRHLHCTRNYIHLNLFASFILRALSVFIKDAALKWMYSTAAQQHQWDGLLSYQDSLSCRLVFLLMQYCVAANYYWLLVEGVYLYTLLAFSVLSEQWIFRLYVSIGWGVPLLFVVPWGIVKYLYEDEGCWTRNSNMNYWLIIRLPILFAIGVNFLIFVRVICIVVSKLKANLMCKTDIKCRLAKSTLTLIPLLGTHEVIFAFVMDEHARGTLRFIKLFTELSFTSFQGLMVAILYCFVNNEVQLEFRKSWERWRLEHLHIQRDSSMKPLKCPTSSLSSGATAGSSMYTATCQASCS
Sequence of human GLP1R (P43220 24-463): as above

For the compound `C[C@]1(c2ccc(Cl)cc2F)Oc2cccc(C3CCN(Cc4nc(C(F)(F)F)c(/C=C/C(=O)O)n4C[C@@H]4CCO4)CC3)c2O1` [Compound C-8, (E)-3-(2-((4-((S)-2-(4-chloro-2-fluorophenyl)-2-methylbenzo[d][1,3]dioxol-4-yl)piperidin-1-yl)methyl)-1-(((S)-oxetan-2-yl)methyl)-4-(trifluoromethyl)-1H-imidazol-5-yl)acrylic acid], the results for the EC50 at human GLP1R and on human GLP1R (hGLP1R) (setting [2]) were over 30000 nM and 0.0606 nM, respectively. Also, the Emax (in general, the greatest response seen or fitted, relative to the assay's reference) is 9.5% on human GLP1R and 108% at human GLP1R (hGLP1R) (setting [1]).

Turning to `Cc1nc(CN2CCC(c3cccc4c3O[C@@](C)(c3ccc(Cl)cc3F)O4)CC2)n(C[C@@H]2CCO2)c1CC(F)C(=O)O` (stereo partly drawn) [Compound C-15, 3-(2-((4-((S)-2-(4-chloro-2-fluorophenyl)-2-methylbenzo[d][1,3]dioxol-4-yl)piperidin-1-yl)methyl)-4-methyl-1-(((S)-oxetan-2-yl)methyl)-1H-imidazol-5-yl)-2-fluoropropanoic acid], the EC50 – broadly, the concentration needed to bring the measured effect to its halfway point – at human GLP1R was over 30000 nM; on human GLP1R (hGLP1R) (setting [2]) it was 0.253 nM. Moreover, the Emax was found to be 41% at human GLP1R and 109% at human GLP1R (hGLP1R) (setting [1]).

`Cc1nc(CN2CCC(c3cccc4c3O[C@@](C)(c3ccc(Cl)cc3F)O4)CC2)n(C[C@@H]2CCO2)c1CCC(=O)O` [Compound C-14, 3-(2-((4-((S)-2-(4-chloro-2-fluorophenyl)-2-methylbenzo[d][1,3]dioxol-4-yl)piperidin-1-yl)methyl)-4-methyl-1-(((S)-oxetan-2-yl)methyl)-1H-imidazol-5-yl)propanoic acid]: the EC50 came out at 3370 nM at human GLP1R and 0.254 nM on human GLP1R (hGLP1R) (setting [2]). For the same compound, the Emax at human GLP1R was found to be 28%; at human GLP1R (hGLP1R) (setting [1]), 107%.

For the compound `C[C@]1(c2ccc(Cl)cc2F)Oc2cccc(C3CCN(Cc4nc(C(F)(F)F)c(-c5nc(=O)o[nH]5)n4C[C@@H]4CCO4)CC3)c2O1` [Compound C-26, 3-(2-((4-((S)-2-(4-chloro-2-fluorophenyl)-2-methylbenzo[d][1,3]dioxol-4-yl)piperidin-1-yl)methyl)-1-(((S)-oxetan-2-yl)methyl)-4-(trifluoromethyl)-1H-imidazol-5-yl)-1,2,4-oxadiazol-5(2H)-one], the values for the EC50 at human GLP1R and at human GLP1R (hGLP1R) (setting [2]) were over 30000 nM and 0.922 nM, respectively. The Emax was -6% on human GLP1R and 99% on human GLP1R (hGLP1R).

Turning to `Cc1nc(CN2CCC(c3cccc4c3O[C@@](C)(c3ccc(Cl)cc3F)O4)CC2)n(C[C@@H]2CCO2)c1/C=C(\F)C(=O)O` [Compound C-19b, (Z)-3-(2-((4-((S)-2-(4-chloro-2-fluorophenyl)-2-methylbenzo[d][1,3]dioxol-4-yl)piperidin-1-yl)methyl)-4-methyl-1-(((S)-oxetan-2-yl)methyl)-1H-imidazol-5-yl)-2-fluoroacrylic acid], the 50% effective concentration (EC50) on human GLP1R is over 30000 nM; on human GLP1R (hGLP1R) (setting [2]), 0.98 nM. In addition, the Emax at human GLP1R came out at 27%; on human GLP1R (hGLP1R) (setting [1]), 111%.

As for `Cc1c(-c2cccc(C(=O)O)c2)nc(CN2CCC(c3cccc4c3O[C@@](C)(c3ccc(Cl)cc3F)O4)CC2)n1C[C@@H]1CCO1` [Compound C-10, 3-(2-((4-((S)-2-(4-chloro-2-fluorophenyl)-2-methylbenzo[d][1,3]dioxol-4-yl)piperidin-1-yl)methyl)-5-methyl-1-(((S)-oxetan-2-yl)methyl)-1H-imidazol-4-yl)benzoic acid], the EC50 on human GLP1R is over 30000 nM; at human GLP1R (hGLP1R) (setting [2]), 0.898 nM. The Emax at human GLP1R was 2%; on human GLP1R (hGLP1R) (setting [1]), 107%.

As to `C[C@]1(c2ccc(Cl)cc2F)Oc2cccc(C3CCN(Cc4nc(F)c(/C=C/C(=O)O)n4C[C@@H]4CCO4)CC3)c2O1` [Compound C-18, (E)-3-(2-((4-((S)-2-(4-chloro-2-fluorophenyl)-2-methylbenzo[d][1,3]dioxol-4-yl)piperidin-1-yl)methyl)-4-fluoro-1-(((S)-oxetan-2-yl)methyl)-1H-imidazol-5-yl)acrylic acid], the half-maximal effective concentration (EC50) stood at 197 nM at human GLP1R and 0.0253 nM at human GLP1R (hGLP1R) (setting [2]). For the same compound, the figures for the Emax on human GLP1R and on human GLP1R (hGLP1R) (setting [1]) were 90% and 116%, respectively.

For `Cc1nc(CN2CCC(c3cccc4c3O[C@@](C)(c3ccc(Cl)cc3F)O4)CC2)n(C[C@@H]2CCO2)c1C#CC(=O)O` [Compound C-22, 3-(2-((4-((S)-2-(4-chloro-2-fluorophenyl)-2-methylbenzo[d][1,3]dioxol-4-yl)piperidin-1-yl)methyl)-4-methyl-1-(((S)-oxetan-2-yl)methyl)-1H-imidazol-5-yl)propiolic acid], the EC50 on human GLP1R worked out at 18 nM; at human GLP1R (hGLP1R) (setting [2]), 0.00397 nM. Also, the Emax at human GLP1R amounted to 76%; at human GLP1R (hGLP1R) (setting [1]), 102%.

For the compound `C[C@]1(c2ccc(Cl)cc2F)Oc2cccc(C3CCN(Cc4nc(C(F)(F)F)c(-c5nnn[nH]5)n4C[C@@H]4CCO4)CC3)c2O1` [Compound C-24, 4-((S)-2-(4-chloro-2-fluorophenyl)-2-methylbenzo[d][1,3]dioxol-4-yl)-1-((1-(((S)-oxetan-2-yl)methyl)-5-(1H-tetrazol-5-yl)-4-(trifluoromethyl)-1H-imidazol-2-yl)methyl)piperidine], the figures for the EC50 at human GLP1R and on human GLP1R (hGLP1R) (setting [2]) were over 30000 nM and 0.784 nM, respectively. The Emax on human GLP1R is -3%; on human GLP1R (hGLP1R) it was 112%.
